According to article PMC6843786, “Temporin-SHa and Its Analogs as Potential Candidates for the Treatment of Helicobacter pylori” (Biomolecules, 2019):
Like-named read-outs stand apart in the source and are kept apart here. Non-standard residues stand in square brackets, D forms with d. Residues, ends and D or L forms follow the SMILES beside them.

Legend:
N87 cells = experiment: In vitro toxicity assay using human gastric cells (resazurin); assay type: cell-based; settings: for IC50: 48 h
Method: [26] Human gastric cells N87 (ATCC CRL-5822) were cultured in RPMI-1640 medium supplemented with 10% fetal calf serum (FCS), 1% L-glutamine and 1% antibiotics (all from Invitrogen, Carlsbad, CA, USA) and were routinely seeded onto 25 cm^2 flasks maintained in a 5% CO2 incubator at 37 °C. For the toxicity assay, cells grown on 25 cm^2 flasks were detached using trypsin–EDTA solution (from Thermofisher), counted using Mallasez counting chamber and seeded into 96-well cell culture plates (Greiner Bio-one) at approximately 10^4 cells per well. The cells were left to grow for 48–72 h at 37 °C in a 5% CO2 incubator until they reached confluence. Plates were then aspirated and increasing concentrations of peptides were added to the cells for 48 h at 37 °C in a 5% CO2 incubator, volume of water corresponding to the volume of peptides being used as negative control. At the end of the incubation, wells were aspirated, and cell viability was evaluated using resazurin-based in vitro toxicity assay kit (Sigma-Aldrich) following manufacturer’s instructions. Briefly, resazurin stock solution was diluted 1:10 in sterile PBS containing calcium and magnesium (PBS^++, pH 7.4) and empty wells were filled with 100 µL of the diluted solution. After 4 h incubation at 37 °C, fluorescence intensity was measured using microplate reader (Synergy Mx, Biotek) with an excitation wavelength of 530 nm and an emission wavelength of 590 nm. The fluorescence values were normalized by the controls and expressed as percent viability.

[1] = system: total lipids extracted from H. pylori (ATCC 43504); experiment: Lipid insertion assay (lipid monolayer, critical pressure of insertion); parameters: species or system biophysical; settings: peptide 1 µM, PBS pH 7.4, from the line fits of Figure 4
Method: Peptide-lipid interaction was measured using reconstituted lipid monolayer at the air-water interface as previously described. Total lipids were extracted from overnight cultures of H. pylori (ATCC 43504) using Folch extraction procedure as previously described. Extracted total lipids were dried, resolubilized in chloroform:methanol (2:1, v/v) and stored at -20 °C under nitrogen. For peptide-lipid interaction assay, total lipid extract was spread using a 50 μL Hamilton's syringe at the surface of 800 μL of sterile PBS creating a lipid monolayer at the air-water interface. Lipids were added until the surface pressure reached the desired value. […] The variation of the surface pressure caused by peptide injection was then continuously monitored using a fully automated microtensiometer (μTROUGH SX, Kibron Inc., Helsinki, Finland) until reaching equilibrium (maximal surface pressure increase being usually obtained after 15-25 min). […] Variation of surface pressure was plotted as a function of initial surface pressure and the critical pressure of insertion of each peptide into H. pylori lipids was calculated as the theoretical value of initial pressure of lipid monolayer not permissive to peptide insertion, i.e., giving a variation of pressure equal to 0 mN/m.

H. pylori (ATCC 43504) [2] = settings: ATCC 43504, 24 h
Excerpt: H. pylori used in this study were either the reference strain obtained from the American Type Culture Collection (ATCC 43504) or clinical strains received frozen from our collaborator Josette Raymond from Hospital Cochin, Paris. Strains were obtained from patients who underwent a gastroendoscopy performed for various gastro-intestinal disorders according to the recommendations of Haute Autorité de Santé (HAS). During the endoscopy, biopsy samples were taken from antrum and corpus. Samples were then crushed, and the material was used for bacterial culture and molecular methods. An antibiogram was performed and strains were then frozen at -80 °C in a broth with 10% glycerol. Bacteria were cultured as previously described. Briefly, H. pylori (ATCC 43504) was cultured in brain heart infusion (BHI) and incubated at 37 °C for 16 h in microaerophilic condition in BD GasPak EZ using BD GasPak EZ CampyPak container system sachets (BD Biosciences, Le Pont-de-Claix, France). For clinical strains, a sample from the frozen bacteria was streaked on Blood Agar (Base) (Sigma-Aldrich, Illkirch-Graffenstaden, France) supplemented with 5% horse defibrinated blood (Fisher Scientific, Les Ulis, France) and 2% isovitale-X (Fisher Scientific, Illkirch-Graffenstaden, France). The petri dishes were then incubated at 37 °C for 4–7 days in microaerophilic condition. Then, a colony is transferred to 3 mL Mueller Hinton (MH) broth supplemented with 10% fetal bovine serum (FBS) and 2% isovitale-X. The cultures were then incubated for 4–7 days until the bacteria grow before further experiments.
(§1) Briefly, after the growth of H. pylori in liquid culture the optical density (OD) of the bacterial suspensions were read at 600 nm and adjusted to one. Stock solutions of the peptides at 1 mM were prepared in sterile water. Bacteria were diluted in medium to reach bacterial density around 10^5 bacteria/mL. One-hundred microliters per well of bacterial suspension were then added into sterile polypropylene 96-well microplates (Greiner BioOne, Paris, France) and exposed to increasing concentrations of peptides (from zero to 100 µM, 1:2 serial dilution). […] Plates were incubated at 37 °C for 24 h for H. pylori (ATCC 43504) and for 4–7 days for the clinical strains. H. pylori was tested in microaerophilic conditions generated using micro-anaerobic BD GasPak system. At the end of the incubation, OD600nm was measured using microplate reader (Synergy Mx, Biotek, Colmar, France). The MIC was defined as the lowest concentration of drug that inhibited visible growth of the organism. Experiments were conducted in independent triplicate (n = 3).

H. pylori (ATCC 43504) [3] = system: H. pylori (ATCC 43504)
Method: The bactericidal activity of peptides was assessed using the time kill assay as previously described with some modifications. Briefly, overnight liquid culture of H. pylori (ATCC 43504) was prepared and an optical density measurement (OD600nm) was taken to provide an estimation of cell numbers in the culture. Bacterial suspension was then centrifuged at 3000 rpm for 5 min and the bacterial pellet was then resuspended in sterile PBS pH6 at approximatively 10^7 CFU/mL. The pH of PBS was changed from 7 to 6 with HCl to mimic the micro-environment surrounding H. pylori in the stomach. Indeed, although the lumen of the stomach is around 1–2, H. pylori is able, through the activity of its urease, to create a local micro-environment around it of pH 6 [31]. In addition to PBS pH 6, the time kill assay was also performed in PBS pH 6 containing a mixture of porcine stomach mucins MUC2 and MUC3 (at 1 mg/mL, final concentration) or in the presence of human gastric cells N87 producing human mucus. In that particular case, N87 cells were seeded onto 96-wells plates and left to grow for 48–72 h until they reached confluence. At that time, wells were aspirated and bacterial suspension in PBS pH 6 were added to the wells. In all cases, resuspended bacteria (200 µL) were treated with peptides or the conventional antibiotic amoxicillin at a final concentration corresponding to five times their MIC. Bacteria were then incubated in micro-aerobic conditions at 37 °C using GasPak units. […] The petri dishes were then incubated 16 h at 37 °C in microaerophilic conditions before counting of growing colonies. The number of surviving bacteria was calculated using the number of observed colonies and the dilution factor. The experiment was done in triplicate.

H. pylori (ATCC 43504) [4] = experiment: MIC after digestion by pepsin (resistance to pepsin); settings: ATCC 43504, 4 h, pH 2
Method: as §1
(§2) It is also rich with mucus to protect it from the aggressive acidity. For this reason, the impact of mucins and pepsin on the activity of the peptides was investigated. The impact of the gastric mucins on peptide activity was evaluated using a combination of commercial porcine stomach mucins MUC2 and MUC3 (Sigma–Aldrich) at a final concentration of 1 mg/mL sterilized using 0.2 µm filter. This concentration was used based on the estimated concentration of mucins present in the mucus in vivo [27]. The effect of mucins on peptides activity was evaluated by MIC and by time killing assay as explained below. The resistance of the peptides to pepsin was tested as previously described with some changes. […] This concentration was used since it corresponds the pepsin concentration in the stomach (0.5–1 mg/mL).

H. pylori (ATCC 43504) [5] = system: H. pylori (ATCC 43504); remark: listed apart in the source
Method: as §1, §2

Row | SMILES | MIC on H. pylori (ATCC 43504) (H. pylori (ATCC 43504) [2]) [µM] | MIC after Digestion by Pepsin (H. pylori (ATCC 43504) [4]) [µM] | MIC in the Presence of mucins (H. pylori (ATCC 43504) [5]; ATCC 43504, 24 h) [µM] | increase of MIC in the presence of mucins (H. pylori (ATCC 43504) [5]; MUC2 and MUC3 at 1 mg/mL versus no mucins) | increase in toxicity to human gastric cells compared to temporin-SHa (N87 cells) | IC50 (N87 cells) [µM] | critical pressure of insertion (CPI) [1] [mN/m] | killing (H. pylori (ATCC 43504) [3]; 20 min, PBS pH 6, 5-times MIC) [%] | killing (H. pylori (ATCC 43504) [3]; 3 h (180 min), PBS pH 6, 5-times MIC) [%] | killing (H. pylori (ATCC 43504) [3]; 3 h, absence or presence of mucus, 5-times MIC) | killing (H. pylori (ATCC 43504) [3]; 9 h (540 min), 5-times MIC) [%]
1 | CC1(C)S[C@@H]2[C@H](NC(=O)[C@H](N)c3ccc(O)cc3)C(=O)N2[C@H]1C(=O)O [amoxicillin, reference compound] | – | – | – | – | – | – | – | 9 | 34 | 31.5–55% | 75
2 | CC[C@H](C)[C@H](NC(=O)[C@@H](C)NC(=O)[C@H](CO)NC(=O)[C@H](CC(C)C)NC(=O)[C@@H](N)Cc1ccccc1)C(=O)N[C@H](C(=O)NCC(=O)N[C@@H](CCSC)C(=O)N[C@@H](CC(C)C)C(=O)N[C@H](C)C(=O)N[C@@H](CCCCN)C(=O)N[C@@H](CC(C)C)C(=O)N[C@@H](Cc1ccccc1)C(N)=O)C(C)C [NST7, H-Phe^1-Leu^2-Ser^3-D-Ala^4-Ile^5-Val^6-Gly^7-Met^8-Leu^9-D-Ala^10-Lys^11-Leu^12-Phe^13-NH2] (H-FLS[dA]IVGML[dA]KLF-NH2) | – | – | – | – | around 15 fold | 84.7 ± 9 | 33 | – | – | – | –
3 | CC[C@H](C)[C@H](NC(=O)CNC(=O)[C@H](CO)NC(=O)[C@H](CC(C)C)NC(=O)[C@@H](N)Cc1ccccc1)C(=O)N[C@H](C(=O)N[C@H](C)C(=O)N[C@@H](CCSC)C(=O)N[C@@H](CC(C)C)C(=O)NCC(=O)N[C@@H](CCCCN)C(=O)N[C@@H](CC(C)C)C(=O)N[C@@H](Cc1ccccc1)C(N)=O)C(C)C [NST3, H-Phe^1-Leu^2-Ser^3-Gly^4-Ile^5-Val^6-D-Ala^7-Met^8-Leu^9-Gly^10-Lys^11-Leu^12-Phe^13-NH2] (H-FLSGIV[dA]MLGKLF-NH2) | 3.12 | >50 | 6.25 | two | around 3 fold | 520 ± 148 | 35.73 | – | – | – | –

Second part, led by results:

Row | MIC on H. pylori (ATCC 43504) (H. pylori (ATCC 43504) [2]) [µM] | MIC after Digestion by Pepsin (H. pylori (ATCC 43504) [4]) [µM] | MIC in the Presence of mucins (H. pylori (ATCC 43504) [5]; ATCC 43504, 24 h) [µM] | increase of MIC in the presence of mucins (H. pylori (ATCC 43504) [5]; MUC2 and MUC3 at 1 mg/mL versus no mucins) | SMILES | increase in toxicity to human gastric cells compared to temporin-SHa (N87 cells) | IC50 (N87 cells) [µM] | critical pressure of insertion (CPI) [1] [mN/m] | killing (H. pylori (ATCC 43504) [3]; 20 min, PBS pH 6, 5-times MIC) [%] | killing (H. pylori (ATCC 43504) [3]; 3 h (180 min), PBS pH 6, 5-times MIC) [%] | killing (H. pylori (ATCC 43504) [3]; 3 h, absence or presence of mucus, 5-times MIC) | killing (H. pylori (ATCC 43504) [3]; 9 h (540 min), 5-times MIC) [%]
4 | 6.25 to 12.5 | – | – | – | CC[C@H](C)[C@H](NC(=O)[C@@H](C)NC(=O)[C@H](CO)NC(=O)[C@H](CC(C)C)NC(=O)[C@@H](N)Cc1ccccc1)C(=O)N[C@H](C(=O)N[C@H](C)C(=O)N[C@@H](CCSC)C(=O)N[C@@H](CC(C)C)C(=O)NCC(=O)N[C@@H](CCCCN)C(=O)N[C@@H](CC(C)C)C(=O)N[C@@H](Cc1ccccc1)C(N)=O)C(C)C [NST4, H-Phe^1-Leu^2-Ser^3-D-Ala^4-Ile^5-Val^6-D-Ala^7-Met^8-Leu^9-Gly^10-Lys^11-Leu^12-Phe^13-NH2] (H-FLS[dA]IV[dA]MLGKLF-NH2) | around 5 fold | 306 ± 48.4 | 39.12 | – | – | – | –
5 | 3.12 | – | – | – | CC[C@H](C)[C@H](NC(=O)CNC(=O)[C@H](CO)NC(=O)[C@H](CC(C)C)NC(=O)[C@@H](N)Cc1ccccc1)C(=O)N[C@H](C(=O)N[C@H](C)C(=O)N[C@@H](CCSC)C(=O)N[C@@H](CC(C)C)C(=O)N[C@H](C)C(=O)N[C@@H](CCCCN)C(=O)N[C@@H](CC(C)C)C(=O)N[C@@H](Cc1ccccc1)C(N)=O)C(C)C [NST6, H-Phe^1-Leu^2-Ser^3-Gly^4-Ile^5-Val^6-D-Ala^7-Met^8-Leu^9-D-Ala^10-Lys^11-Leu^12-Phe^13-NH2] (H-FLSGIV[dA]ML[dA]KLF-NH2) | around 15 fold | 104 ± 9.3 | 44.43 | – | – | – | –
